Data reported in ChEMBL document CHEMBL6109159, “Discovery of a Potent and Selective Protein Arginine Methyltransferase 5 (PRMT5) PROTAC Degrader” (J Med Chem, 2025).
Activity calls are given as the source filed them. The rule behind the calls is not given here.

Experiments:
[1] = biological target: T1, von Hippel-Lindau disease tumor suppressor/Protein arginine N-methyltransferase 5 (Homo sapiens, UniProt O14744+P40337); assay: PROTAC activity at PRMT5/VHL in human MDA-MB-468 cells assessed as relative protein level at 5 uM measured after 24 hrs by Western blot analysis; format: cell-based
Target sequence in this assay (O14744 whole entry, looked up): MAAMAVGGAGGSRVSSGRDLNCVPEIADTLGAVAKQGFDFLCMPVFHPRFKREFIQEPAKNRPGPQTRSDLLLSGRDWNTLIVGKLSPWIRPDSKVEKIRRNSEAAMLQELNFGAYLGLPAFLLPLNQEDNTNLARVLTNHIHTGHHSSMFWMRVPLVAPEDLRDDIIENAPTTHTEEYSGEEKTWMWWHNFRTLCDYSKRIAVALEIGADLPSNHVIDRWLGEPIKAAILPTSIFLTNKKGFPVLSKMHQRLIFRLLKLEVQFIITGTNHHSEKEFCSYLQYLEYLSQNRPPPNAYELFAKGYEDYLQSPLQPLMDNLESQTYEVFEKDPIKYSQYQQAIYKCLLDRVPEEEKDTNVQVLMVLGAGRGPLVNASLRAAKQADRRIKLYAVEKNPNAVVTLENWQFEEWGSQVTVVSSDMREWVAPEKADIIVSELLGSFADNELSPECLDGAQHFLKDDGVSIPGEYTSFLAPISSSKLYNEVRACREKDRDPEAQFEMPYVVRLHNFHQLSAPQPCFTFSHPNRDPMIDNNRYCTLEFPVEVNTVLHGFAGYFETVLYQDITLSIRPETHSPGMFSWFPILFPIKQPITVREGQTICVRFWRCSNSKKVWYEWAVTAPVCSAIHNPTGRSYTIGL
Target sequence in this assay (P40337 whole entry, looked up): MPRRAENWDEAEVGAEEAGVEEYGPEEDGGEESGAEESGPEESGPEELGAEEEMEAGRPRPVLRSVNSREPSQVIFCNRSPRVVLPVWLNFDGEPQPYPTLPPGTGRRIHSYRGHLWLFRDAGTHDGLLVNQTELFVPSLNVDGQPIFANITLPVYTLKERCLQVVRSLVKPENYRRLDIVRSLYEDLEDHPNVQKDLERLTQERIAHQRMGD

[2] = biological target: T2, von Hippel-Lindau disease tumor suppressor/Methylosome protein WDR77 (Homo sapiens, UniProt Q9BQA1+P40337); assay: PROTAC activity at MEP50/VHL in human MDA-MB-468 cells assessed as relative protein level at 0.5 uM measured after 24 hrs by Western blot analysis; format: cell-based
Target sequence in this assay (P40337 whole entry, looked up): as above
Target sequence in this assay (Q9BQA1 whole entry, looked up): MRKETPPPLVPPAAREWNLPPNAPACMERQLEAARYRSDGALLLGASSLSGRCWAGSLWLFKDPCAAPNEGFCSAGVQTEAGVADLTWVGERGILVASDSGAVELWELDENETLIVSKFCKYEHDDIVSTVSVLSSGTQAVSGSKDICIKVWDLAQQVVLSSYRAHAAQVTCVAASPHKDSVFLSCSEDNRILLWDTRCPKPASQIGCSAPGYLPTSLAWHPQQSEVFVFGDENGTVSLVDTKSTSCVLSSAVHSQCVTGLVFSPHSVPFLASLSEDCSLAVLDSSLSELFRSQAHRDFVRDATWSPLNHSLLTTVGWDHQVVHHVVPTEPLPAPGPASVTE

[3] = biological target: T2, von Hippel-Lindau disease tumor suppressor/Methylosome protein WDR77; assay: PROTAC activity at MEP50/VHL in human MDA-MB-468 cells assessed as relative protein level at 5 uM measured after 24 hrs by Western blot analysis; format: cell-based
Target sequence in this assay (P40337 whole entry, looked up): as the sequence (P40337 whole entry, looked up) above
Target sequence in this assay (Q9BQA1 whole entry, looked up): as the sequence (Q9BQA1 whole entry, looked up) above

[4] = biological target: T1, von Hippel-Lindau disease tumor suppressor/Protein arginine N-methyltransferase 5; assay: PROTAC activity at PRMT5/VHL in human MDA-MB-468 cells assessed as degradation measured after 72 hrs by Western blot analysis; format: cell-based
Target sequence in this assay (O14744 whole entry): as the sequence (O14744 whole entry, looked up) above
Target sequence in this assay (P40337 whole entry): as the sequence (P40337 whole entry, looked up) above

[5] = biological target: T2, von Hippel-Lindau disease tumor suppressor/Methylosome protein WDR77; assay: PROTAC activity at MEP50/VHL in human MDA-MB-468 cells assessed as degradation measured after 72 hrs by Western blot analysis relative to control; format: cell-based
Target sequence in this assay (Q9BQA1 whole entry): as the sequence (Q9BQA1 whole entry, looked up) above
Target sequence in this assay (P40337 whole entry): as the sequence (P40337 whole entry, looked up) above

[6] = biological target: T1, von Hippel-Lindau disease tumor suppressor/Protein arginine N-methyltransferase 5; assay: PROTAC activity at PRMT5/VHL in human MDA-MB-468 cells assessed as degradation at 2 uM by Western blot analysis; format: cell-based; conditions: time 3-48 hrs
Target sequence in this assay (O14744 whole entry, looked up): as the sequence (O14744 whole entry, looked up) above
Target sequence in this assay (P40337 whole entry, looked up): as the sequence (P40337 whole entry, looked up) above

[7] = biological target: T2, von Hippel-Lindau disease tumor suppressor/Methylosome protein WDR77; assay: PROTAC activity at MEP50/VHL in human MDA-MB-468 cells assessed as degradation at 2 uM by Western blot analysis; format: cell-based; conditions: time 3-48 hrs
Target sequence in this assay (P40337 whole entry, looked up): as above
Target sequence in this assay (Q9BQA1 whole entry, looked up): as the sequence (Q9BQA1 whole entry, looked up) above

[8] = biological target: Protein arginine N-methyltransferase 5 (Homo sapiens, UniProt O14744); assay: Inhibition of PRMT5 (unknown origin) using S-adenosylmethionine (SAM) using as substrate preincubated for 30 mins followed by substrate addition measured after 60 mins by microplate reader
[9] = biological target: T1, von Hippel-Lindau disease tumor suppressor/Protein arginine N-methyltransferase 5; assay: PROTAC activity at PRMT5/VHL in human MDA-MB-468 cells assessed as degradation pretreated with VHL-1 followed by treated at 5 uM of compound after 24 hrs by Western blot analysis; format: cell-based
Target sequence in this assay (O14744 whole entry, looked up): as the sequence (O14744 whole entry, looked up) above
Target sequence in this assay (P40337 whole entry, looked up): as the sequence (P40337 whole entry, looked up) above

[10] = biological target: T1, von Hippel-Lindau disease tumor suppressor/Protein arginine N-methyltransferase 5; assay: PROTAC activity at PRMT5/VHL in human MDA-MB-468 cells assessed as degradation pretreated with MG132 proteasome inhibitor followed by treated at 5 uM of compound after 24 hrs by Western blot analysis; format: cell-based
Target sequence in this assay (O14744 whole entry, looked up): as the sequence (O14744 whole entry, looked up) above
Target sequence in this assay (P40337 whole entry, looked up): as the sequence (P40337 whole entry, looked up) above

[11] = biological target: T1, von Hippel-Lindau disease tumor suppressor/Protein arginine N-methyltransferase 5; assay: PROTAC activity at PRMT5/VHL in VHL KO human MDA-MB-468 cells assessed as degradation at 0.5 uM of compound after 24 hrs by Western blot analysis; format: cell-based
Target sequence in this assay (O14744 whole entry, looked up): as the sequence (O14744 whole entry, looked up) above
Target sequence in this assay (P40337 whole entry, looked up): as the sequence (P40337 whole entry, looked up) above

[12] = biological target: T2, von Hippel-Lindau disease tumor suppressor/Methylosome protein WDR77; assay: PROTAC activity at MEP50/VHL in VHL KO human MDA-MB-468 cells assessed as degradation at 0.5 uM of compound after 24 hrs by Western blot analysis; format: cell-based
Target sequence in this assay (P40337 whole entry, looked up): as above
Target sequence in this assay (Q9BQA1 whole entry, looked up): as the sequence (Q9BQA1 whole entry, looked up) above

[13] = biological target: T2, von Hippel-Lindau disease tumor suppressor/Methylosome protein WDR77; assay: PROTAC activity at MEP50/VHL in VHL KO human MDA-MB-468 cells assessed as degradation at 5 uM of compound after 24 hrs by Western blot analysis; format: cell-based
Target sequence in this assay (P40337 whole entry, looked up): as the sequence (P40337 whole entry, looked up) above
Target sequence in this assay (Q9BQA1 whole entry, looked up): as the sequence (Q9BQA1 whole entry, looked up) above

[14] = biological target: T1, von Hippel-Lindau disease tumor suppressor/Protein arginine N-methyltransferase 5; assay: PROTAC activity at PRMT5/VHL in human MDA-MB-468 cells assessed as downregulation of PRMT5 at 2 uM of compound after 24 hrs by mass spectrometry (MS)-based global proteomic study; format: cell-based
Target sequence in this assay (O14744 whole entry, looked up): as the sequence (O14744 whole entry, looked up) above
Target sequence in this assay (P40337 whole entry, looked up): as the sequence (P40337 whole entry, looked up) above

[15] = biological target: T2, von Hippel-Lindau disease tumor suppressor/Methylosome protein WDR77; assay: PROTAC activity at MEP50/VHL in human MDA-MB-468 cells assessed as downregulation of MEP50 at 2 uM of compound after 24 hrs by mass spectrometry (MS)-based global proteomic study; format: cell-based
Target sequence in this assay (P40337 whole entry, looked up): as above
Target sequence in this assay (Q9BQA1 whole entry, looked up): as the sequence (Q9BQA1 whole entry, looked up) above

[16] = system: MDA-MB-468; assay: Cytotoxicity against human MDA-MB-468 cells assessed as cell viability measured after 7 days by CCK-8 assay; format: functional; conditions: MDA-MB-468, 168 h, time 7 day
[17] = biological target: T1, von Hippel-Lindau disease tumor suppressor/Protein arginine N-methyltransferase 5; assay: PROTAC activity at PRMT5/VHL in human MDA-MB-453 cells assessed as degradation at 0.5 uM after 3 days by Western blot analysis; format: cell-based; conditions: time 3.0 day
[18] = system: MDA-MB-468; assay: Inhibition of colony formation in human MDA-MB-468 cells incubated for 16 days by crystal violet staining based analysis; format: functional, cell-based; conditions: time 16.0 day
[19] = biological target: T2, von Hippel-Lindau disease tumor suppressor/Methylosome protein WDR77; assay: PROTAC activity at MEP50/VHL in human MCF7 cells assessed as degradation at 0.5 uM after 3 days by Western blot analysis; format: cell-based; conditions: time 3.0 day
[20] = biological target: T1, von Hippel-Lindau disease tumor suppressor/Protein arginine N-methyltransferase 5; assay: PROTAC activity at PRMT5/VHL in human MDA-MB-231 cells assessed as degradation at 0.5 uM after 3 days by Western blot analysis; format: cell-based; conditions: time 3.0 day
[21] = biological target: T1, von Hippel-Lindau disease tumor suppressor/Protein arginine N-methyltransferase 5; assay: PROTAC activity at PRMT5/VHL in human MDA-MB-453 cells assessed as degradation at 5 uM after 3 days by Western blot analysis; format: cell-based; conditions: time 3.0 day
[22] = biological target: T2, von Hippel-Lindau disease tumor suppressor/Methylosome protein WDR77; assay: PROTAC activity at MEP50/VHL in human MDA-MB-453 cells assessed as degradation at 0.5 uM after 3 days by Western blot analysis; format: cell-based; conditions: time 3.0 day
[23] = biological target: T2, von Hippel-Lindau disease tumor suppressor/Methylosome protein WDR77; assay: PROTAC activity at MEP50/VHL in human MDA-MB-453 cells assessed as degradation at 5 uM after 3 days by Western blot analysis; format: cell-based; conditions: time 3.0 day
[24] = system: MDA-MB-453; assay: Growth inhibition of human MDA-MB-453 cells assessed as cell viability measured after 5 days by CCK-8 assay; format: functional, cell-based; conditions: time 5.0 day
[25] = system: MDA-MB-231; assay: Growth inhibition of human MDA-MB-231 cells assessed as cell viability measured after 5 days by CCK-8 assay; format: functional, cell-based; conditions: time 5.0 day
[26] = system: MCF7; assay: Growth inhibition of human MCF7 cells assessed as cell viability measured after 5 days by CCK-8 assay; format: functional, cell-based; conditions: time 5.0 day
[27] = system: BT-549; assay: Growth inhibition of human BT-549 cells assessed as cell viability measured after 5 days by CCK-8 assay; format: functional, cell-based; conditions: time 5.0 day
[28] = biological target: T1, von Hippel-Lindau disease tumor suppressor/Protein arginine N-methyltransferase 5; assay: PROTAC activity at PRMT5/VHL in human PC-3 cells assessed as degradation at 0.004 to 2.5 uM after 7 hrs by Western blot analysis; format: cell-based; conditions: dose 0.004-2.5 µM
[29] = biological target: T2, von Hippel-Lindau disease tumor suppressor/Methylosome protein WDR77; assay: PROTAC activity at MEP50/VHL in human PC-3 cells assessed as degradation at 0.004 to 2.5 uM after 7 hrs by Western blot analysis; format: cell-based; conditions: dose 0.004-2.5 µM
[30] = system: PC-3; assay: Inhibition of colony formation in human PC-3 cells incubated for 10 days by crystal violet staining based analysis; format: functional, cell-based; conditions: time 10.0 day
[31] = system: PC-3; assay: Inhibition of sDMA (symmetric dimethylarginine) level in human PC-3 cells at 2 uM measured after 7 days by Western blot analysis; format: functional, cell-based; conditions: time 7.0 day
[32] = biological target: T1, von Hippel-Lindau disease tumor suppressor/Protein arginine N-methyltransferase 5; assay: PROTAC activity at PRMT5/VHL in human MCF-10A cells assessed as degradation at 0.5 to 5 uM after 3 days by Western blot analysis; format: cell-based; conditions: dose 0.5-5 µM, time 3.0 day
[33] = system: MCF-10A; assay: PROTAC activity at MEP50/VHL in human MCF-10A cells assessed as degradation at 0.5 to 5 uM after 3 days by Western blot analysis; format: cell-based; conditions: dose 0.5-5 µM, time 3.0 day
[34] = biological target: T2, von Hippel-Lindau disease tumor suppressor/Methylosome protein WDR77; assay: PROTAC activity at MEP50/VHL in human PNT2 cells assessed as degradation at 0.5 to 5 uM after 3 days by Western blot analysis; format: cell-based; conditions: dose 0.5-5 µM, time 3.0 day
[35] = system: MCF-10A; assay: Cytotoxicity against human MCF10A cells assessed as cell viability up to 15 uM measured after 5 days by CCK-8 assay; format: toxicity, cell-based; conditions: 120 h, time 5 day
[36] = Cmax in Swiss albino mouse plasma at 50 mg/kg, ip measured after 0.5 hrs by LC-MS/MS analysis; format: ADME, organism-based; conditions: in vivo

Chain of Protein arginine N-methyltransferase 5 (O14744 whole entry): as the sequence (O14744 whole entry, looked up) above

Cc1ncsc1-c1ccc([C@H](CC(=O)NCCOCCOCCOCCOCCOCCC(=O)N2CCC(Nc3cc(C(=O)NC[C@H](O)CN4CCc5ccccc5C4)ncn3)CC2)NC(=O)[C@@H]2C[C@@H](O)CN2C(=O)[C@@H](NC(=O)C2(F)CC2)C(C)(C)C)cc1
Activity [1]: Active
Activity [2]: Active
Activity [3]: Active
DC50 [4]: 17.4 nM
DC50 [5]: 11.3 nM
Activity [6]: Time-dependent-effect
Activity [7]: Time-dependent-effect
IC50 [8]: 2100 nM
Activity [9]: inactive
Activity [10]: inactive
Activity [11]: Not active; Complete Rescue Not Observed - Due To Incomplete Vhl Ko
Activity [12]: Not active; Complete Rescue Not Observed - Due To Incomplete Vhl Ko
Activity [13]: Not active; Complete Rescue Not Observed - Due To Incomplete Vhl Ko
Activity [14]: Active
Activity [15]: Active
GI50 [16]: 5600 nM
Activity [17]: Active
Activity [18]: Active
Activity [19]: Active
Activity [20]: Active
Activity [21]: Active
Activity [22]: Active
Activity [23]: Active
growth inhibition (GI) [24]: Active
growth inhibition (GI) [25]: Active
growth inhibition (GI) [26]: Active
growth inhibition (GI) [27]: Active
Activity [28]: Active
Activity [29]: Active
Activity [30]: Active
inhibition [31]: Active
Activity [32]: 100%
Activity [33]: 100%
Activity [34]: 100%
Activity [35]: Non-toxic
Cmax [36]: 17.5 µM
